Patent publication US11236129B2, “IL-17A binding peptides and medical uses thereof” (Dompe' Farmaceutici S.P.A., priority 2018, dated 2022)
Entries after “also recorded” stand apart in the source; their conditions may differ. Residues, ends and D or L forms follow the SMILES beside them.

Legend:
[1] = test system: human corneal epithelial cells (hCEPIC); test: Permeability test across stratified human corneal epithelial cells; format: in vitro ADME
Procedure: (§1) The objective of this study was to evaluate the apparent permeability coefficient (Papp) value of the peptides across stratified human corneal epithelial cells. All peptides were tested at 50 μM in duplicate.
(§2) In particular, human corneal epithelial cells (hCEPIC) were stratified on Transwell cell culture inserts (Corning, N.Y., USA). The permeation experiments were performed taking samples from receiver chambers at 5, 30, 60 minutes time points and from donor chambers at the same time points. Each aliquot collected was analyzed by HPLC instrument (Knauer) equipped with C18 Vertex Plus Column (Knauer) thermostatically controlled at 40° C. The rate (apparent permeability coefficient, Papp) of the study compounds was calculated and compared to the Papp values of the low and high permeability markers, 6-carboxyfluorescein and Rhodamine B, respectively.
(§3) The apparent permeability coefficient (Papp) was calculated according to Equation: Papp=(I/A*C0)(dM/dt)
(§4) where dM/dt is the flux (nanomoles per second) across the cell layers;
(§5) A (square centimeters) is the exposed surface area of the insert membrane;
(§6) C0 is the initial drug concentration (micromolar) in the donor compartment at t=0 (Xiang et al., Drug Metab Dispos. 2009 May; 37(5):992-8.

[2] = as above; format: in vitro ADME
Procedure: as §1, §2, §3, §4, §5, §6

[3] = Isoelectric point, log D and log P (SiriusT3); format: physicochemical; conditions: for IP (isoelectric point): 25±1° C., 0.15 M KCl; for logP: octanol/ISA water, read-out: logP; for logD: pH 7.4, pH 7.4, octanol/ISA water, read-out: Log D (7.4)
[4] = format: physicochemical; conditions: pH 7.8
Method in brief: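 Peptides dissolved in phosphate buffer pH 7.8 as 10 mM stocks (more dilute for less soluble ones) and stored at 25 °C. Content measured by reversed-phase UHPLC (C18, 0.5% formic acid water/acetonitrile gradient, DAD 220-400 nm, ESI-MS ion trap) after 1:100 dilution to 100 μM, against 100 μM standards, at T0, 3 days and 1 week.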

[5] = molecular target: IL-17RA/IL17RC dimerization induced by IL-17A (Homo sapiens, UniProt Q16552); test: IL-17RA/IL17RC dimerization assay in response to IL-17A (PathHunter Cytokine Receptor Assay); format: cell-based; conditions: IL-17A at EC80; read-out: IC50 in IL-17RA/IL7RC dimerization assay
IL-17RA/IL17RC dimerization induced by IL-17A, sequence (Q16552 24-155): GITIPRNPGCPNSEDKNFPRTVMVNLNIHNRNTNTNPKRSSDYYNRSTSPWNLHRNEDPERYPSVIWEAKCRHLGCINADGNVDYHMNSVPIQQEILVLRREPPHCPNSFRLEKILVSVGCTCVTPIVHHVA
Method in brief: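 PathHunter cells with IL-17RA and IL-17RC tagged for β-galactosidase complementation were preincubated 60 min with peptide (1% vehicle). IL-17A was then added at EC80 for 6–16 h at 37 °C, and chemiluminescence was read. Inhibition is relative to the EC80 and vehicle controls.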

[6] = test system: Immortalized Human Corneal Epithelial cell line (I-HCEC); test: In vitro evaluation of expression of inflammatory cytokines in I-HCEC (real-time PCR); format: cell-based; conditions: 0.01-500 μM, 24 hours
Procedure: The tests were conducted on Immortalized Human Corneal Epithelial cell line (I-HCEC) (Innoprot, Bizkaia, Spain, Ref. P10871). […] The cell medium was supplemented with 5% Fetal Bovine Serum (FBS). Cells were seeded at 320000 cells/well 6 plate and 15000 cells/well 96 plate. […] The experiments were performed three times, each time in duplicate. The used probes from Thermo Fisher Scientific are: human CXCL8 (Hs00174103_m1), human IL6 (Hs00174131_m1), human TNFα (Hs99999043_m1). As housekeeping gene was used GAPDH (probe Hs02758991_g1). […] Untreated I-HCEC were used as negative control (Vehicle).

mouse IL-17A = molecular target: T1, mouse IL-17A (Mus musculus, UniProt Q62386); test: Peptide-IL-17A affinity test (SPR); format: binding
T1 sequence (Q62386 26-158): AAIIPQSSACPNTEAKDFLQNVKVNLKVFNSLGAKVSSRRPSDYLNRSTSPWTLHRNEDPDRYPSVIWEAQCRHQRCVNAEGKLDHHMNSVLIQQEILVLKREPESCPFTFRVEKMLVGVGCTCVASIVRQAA
Procedure: The peptide of the prior art HAP (SEQ ID NO:1) and peptide of SEQ ID NO:2 were tested for affinity for mIL-17A, as described below. For the immobilization of mouse IL-17A protein, amine coupling chemistry was used. […] Covalent immobilization of mIL17 results in stable attachment of 3000 RU of ligand to the surface. […] The molecules were diluted at different concentrations (from 62.5 to 1000 nM) in HBS-EP buffer and injected on the sensorchip for 4 minutes and allowed to dissociate for 5 minutes. After each run, the sensorchip was regenerated by 2 M NaCl injection. Based on the sensorgrams (FIG. 1, panel A) and using the BIAevaluation software, the Scatchard analysis of the RU values at equilibrium allowed to determine an affinity constant as a function of the analyte concentration in solution (FIG. 6, panel B).

human TH17 cells = test: Viability of human TH17 cells (Alamar blue); format: cell-based
Procedure: (§7) At 24 h following stimulation, culture supernatants were analyzed for expression of IL-17, IL-6, IL-23, MMP3 and examined for viability using the fluorescence viability dye, Alamar blue. The CD4 cells secreted high levels of IL-17A in response to stimulation with an activation cocktail, indicating successful differentiation into Th17 cells. Additionally, stimulated cells secreted IL-6, IL23 and MMP3.
(§8) Supernatant was removed and replaced with 200 μL of diluted peptide or vehicle (CGM+DMSO diluted as with TI concentration) in appropriate groups. Cells were incubated with peptide test items for 1 hour before stimulation. The following stimulation solutions were generated: 10× Cell Activation Cocktail: Diluted from 500× to 10× working solution in CGM. 22 μL of appropriate stimulants were added to wells 1 hr after TI addition. Finally, 25 μL of Alamar blue reagent (10×) was added to each well 20 hours after stimulant (4 hrs prior to 24 hr serum collection) to determine cell viability. 24 hrs After Stimulant, Alamar blue fluorescence was measured per manufacturer's instructions. Remaining Supernatants were collected for subsequent multiplex protein analyses. Expression levels of IL-6, IL-17, and IL-23 as well as MMP3 in 24 hour stimulated culture supernatants was evaluated using a Luminex Multiplex Platform on a MAGPIX instrument.

[7] = test system: human differentiated TH17 cells; test: Cytokine and metalloproteinase secretion by human differentiated and activated TH17 cells; format: cell-based; conditions: 24 h after stimulation, supernatant
Description: To evaluate the effect of the peptides of the invention on the target cells responsible for inflammation in ophtalmic or dermatological pathologies, we tested the ability of the peptide of SEQ ID NO: 18 to inhibit in vitro pro-inflammatory cytokines and metalloproteinases secretion by human Th17 cells.
Human primary CD4 T-cells were differentiated into Th17 cells in vitro by culturing the cells in Th17 differentiation medium for 10 days. In details, purified human peripheral blood CD4 T-cells were cultured in Th-17 differentiation medium (CellXVivo Human Th17, Tocris) per manufacturer's instructions. Briefly: 96-well tissue culture plates were coated with anti-CD3 and CD28 agonistic antibodies. Cells were counted via trypan blue exclusion and suspended at a concentration of 1E5 cells/ml in Th-17 differentiation medium. 0.2 mL of this suspension was plated into individual wells of a 96-well plate. Cells were incubated at 37° C. with 5% CO2 for 10 days, with media replaced as needed. Following 10-day Cell Differentiation, the peptides synthetized in Example 1, such as the peptide of Seq. ID No 18, were diluted to the appropriate concentration in CGM (cell growth medium, XVivo-15, Lonza). Cell plate was centrifuged at 300×g for 5 min, and Th17 differentiation medium was removed.
Following differentiation, the cells were stimulated with both an activation cocktail containing Phorbol 12-myristate 13-acetate and lonomycin in the presence of varying concentrations of test articles.
as §7
as §8, with “Remaining Supernatants were collected for subsequent multiplex protein analyses.” left out

SMILES: CC[C@H](C)[C@H](NC(=O)[C@H](Cc1c[nH]c2ccccc12)NC(=O)[C@H](CC(=O)O)NC(=O)[C@H](Cc1c[nH]c2ccccc12)NC(=O)[C@H](CC(C)C)NC(=O)[C@H](CC(=O)O)NC(=O)[C@H](C)NC(=O)[C@@H]1CCCN1C(=O)[C@@H](NC(=O)[C@@H](NC(=O)[C@@H](NC(=O)[C@H](Cc1c[nH]cn1)NC(=O)[C@@H](NC(C)=O)C(C)C)C(C)C)[C@@H](C)O)[C@@H](C)CC)C(=O)N[C@@H](CC(N)=O)C(=O)N[C@@H](CCCCN)C(N)=O [SEQ ID NO: 2] (Ac-VHVTIPADLWDWINK-NH2)
- Permeability (Papp ± SE) [1]: 28.86
- permeability compared to high permeability standard Rhodamine B (in words) [1]: good permeability
- Papp ([2]; Permeability (Papp ± SE)): 28.8 ×10⁻⁶ cm/s
- Papp ([2]; Permeability (Papp)): 28.9 ×10⁻⁶ cm/s
- IP (isoelectric point) [3]: 5.14
- logP [3]: 0.99
- logD [3]: -0.56
- solubility [4]: > 10 mM
- IC50 [5]: < 200 nM
- expression of the measured inflammatory cytokines (IL-8, IL-6, TNF-α) [6]: does not change the expression; also recorded: does not show any effect
- affinity for mouse IL-17A relative to SEQ ID NO: 1 (mouse IL-17A; SPR): 28 fold
- Kd (mouse IL-17A; immobilized mIL-17A, 62.5 to 1000 nM peptide, read-out: Kdeq (SPR)): 130 nM

SMILES: CC[C@H](C)[C@H](NC(=O)[C@H](Cc1c[nH]c2ccccc12)NC(=O)[C@H](CCC(=O)O)NC(=O)[C@H](Cc1ccc(O)cc1)NC(=O)[C@H](CC(C)C)NC(=O)[C@H](CC(=O)O)NC(=O)[C@H](C)NC(=O)[C@@H]1CCCN1C(=O)[C@@H](NC(=O)[C@@H](NC(=O)[C@@H](NC(=O)[C@H](CCSC)NC(=O)[C@@H](NC(C)=O)C(C)C)C(C)C)[C@@H](C)O)[C@@H](C)CC)C(=O)N[C@@H](CCC(=O)O)C(=O)N[C@@H](CCC(=O)O)C(N)=O [SEQ ID NO: 18] (Ac-VMVTIPADLYEWIEE-NH2)
- IP (isoelectric point) [3]: 3.55
- logP [3]: 1.89
- logD [3]: -3.79
- solubility [4]: ≥ 0.05 mM
- IC50 [5]: < 400 nM
- cell viability (human TH17 cells): did not impair cell viability
- secretion of IL-6 [7]: significantly reduce
- secretion of IL-17A [7]: significantly reduce
- secretion of IL-23 [7]: significantly reduce
- secretion of MMP3 [7]: significantly reduce
